Results taken from US20240336601A1 (Chulalongkorn University, priority 2020, published 2024).

How the values were obtained:
PD-1/PD-L1 interaction = molecular target: T1, PD-1/PD-L1 interaction (Homo sapiens, UniProt Q9NZQ7); assay: PD-1/PD-L1 blockage cell-based bioassay (Jurkat NFAT luciferase / CHO-PDL1 co-culture); conditions: Jurkat NFAT cells co-cultured with CHO-PDL1 cells, 6 h, luminescence
T1 construct: expressed in transfected cells

[1] = molecular target: interaction between PD-1 and PD-L1 (Homo sapiens, UniProt Q9NZQ7); assay: PD-1/PD-L1 protein-protein interaction assay (ALPHA); format: binding; conditions: 2 nM His-tagged human PD-L1, 0.6 nM PD-1-Fc, AlphaScreen
Chain of interaction between PD-1 and PD-L1 (Q9NZQ7 19-238 limits assumed): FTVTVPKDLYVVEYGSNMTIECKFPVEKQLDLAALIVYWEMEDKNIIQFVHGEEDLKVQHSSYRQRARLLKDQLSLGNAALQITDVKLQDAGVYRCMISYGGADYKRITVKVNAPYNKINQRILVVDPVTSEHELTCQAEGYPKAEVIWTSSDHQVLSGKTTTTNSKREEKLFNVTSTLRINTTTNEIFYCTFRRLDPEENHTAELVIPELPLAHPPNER

T1 sequence (Q9NZQ7 19-290): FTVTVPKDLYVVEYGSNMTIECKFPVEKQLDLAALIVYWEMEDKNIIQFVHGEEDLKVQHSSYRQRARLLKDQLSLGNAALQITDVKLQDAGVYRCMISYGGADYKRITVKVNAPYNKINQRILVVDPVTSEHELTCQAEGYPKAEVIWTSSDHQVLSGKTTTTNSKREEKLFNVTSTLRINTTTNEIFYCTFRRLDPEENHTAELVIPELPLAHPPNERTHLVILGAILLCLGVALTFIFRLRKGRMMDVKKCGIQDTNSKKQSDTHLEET

| IC50 (PD-1/PD-L1 interaction) [µM] | IC50 [1] [µM] | SMILES |
| --- | --- | --- |
| > 2 | < 0.001 | COc1cc(-n2ncc3c(-c4cccc(-c5ccc(CN[C@H]6C[C@@H](O)C6)c(OC)n5)c4Cl)cccc32)ncc1CN[C@@H](CO)C(N)=O [Example 118, (S)-2-(((6-(4-(2-chloro-3-(5-(((cis-3-hydroxycyclobutyl)amino)methyl)-6-methoxypyridin-2-yl)phenyl)-1H-indazol-1-yl)-4-methoxypyridin-3-yl)methyl)amino)-3-hydroxypropanamide] |
| 0.201 to 2 | < 0.001 | COc1cc(-n2ncc3c(-c4cccc(-c5ccc(CN[C@H]6C[C@@H](O)C6)c(OC)n5)c4Cl)cccc32)cc(OC)c1CN[C@@H](C)CO [Example 119, cis-3-(((6-(2-chloro-3-(1-(4-((((S)-1-hydroxypropan-2-yl)amino)methyl)-3,5-dimethoxyphenyl)-1H-indazol-4-yl)phenyl)-2-methoxypyridin-3-yl)methyl)amino)cyclobutanol] |
| 0.201 to 2 | < 0.001 | COc1cc(-n2ncc3c(-c4cccc(-c5ccc(CN[C@H]6C[C@@H](O)C6)c(OC)n5)c4Cl)cccc32)ncc1CN[C@H](CO)C(=O)O [Example 120, ((6-(4-(2-chloro-3-(5-(((cis-3-hydroxycyclobutyl)amino)methyl)-6-methoxypyridin-2-yl)phenyl)-1H-indazol-1-yl)-4-methoxypyridin-3-yl)methyl)-D-serine] |
| 0.201 to 2 | < 0.001 | COc1cc(-n2ncc3c(-c4cccc(-c5ccc(CN[C@H]6C[C@@H](O)C6)c(OC)n5)c4Cl)cccc32)cc(OC)c1CN[C@@H](CO)C(N)=O [Example 121, (S)-2-((4-(4-(2-chloro-3-(5-(((cis-3-hydroxycyclobutyl)amino)methyl)-6-methoxypyridin-2-yl)phenyl)-1H-indazol-1-yl)-2,6-dimethoxybenzyl)amino)-3-hydroxypropanamide] |
| 0.201 to 2 | 0.001 to 0.01 | COc1cc(-n2ncc3c(-c4cccc(-c5ccc(CN[C@H]6C[C@@H](O)C6)c(OC)n5)c4Cl)cccc32)ncc1CNC[C@@H](C)O [Example 122, cis-3-(((6-(2-chloro-3-(1-(5-((((R)-2-hydroxypropyl)amino)methyl)-4-methoxypyridin-2-yl)-1H-indazol-4-yl)phenyl)-2-methoxypyridin-3-yl)methyl)amino)cyclobutanol] |
| < 0.2 | < 0.001 | COc1cc(-n2ncc3c(-c4cccc(-c5ccc(CNC[C@@H]6CCC(=O)N6)c(OC)n5)c4Cl)cccc32)cc(OC)c1CN[C@H](CO)C(=O)O [Example 123, (4-(4-(2-chloro-3-(6-methoxy-5-(((((S)-5-oxopyrrolidin-2-yl)methyl)amino)methyl)pyridin-2-yl)phenyl)-1H-indazol-1-yl)-2,6-dimethoxybenzyl)-D-serine] |
| 0.201 to 2 | < 0.001 | COc1cc(-n2ncc3c(-c4cccc(-c5ccc(CN[C@H]6C[C@@H](O)C6)c(OC)n5)c4Cl)cccc32)ncc1CN1CC(C)(O)C1 [Example 124, 1-((6-(4-(2-chloro-(5-(((cis-3-hydroxycyclobutyl)amino)methyl)-6-methoxypyridin-2-yl)phenyl)-1H-indazol-1-yl)-4-methoxypyridin-3-yl)methyl)-3-methylazetidin-3-ol] |
| < 0.2 | < 0.001 | COc1cc(-n2ncc3c(-c4cccc(-c5ccc(CN[C@H]6C[C@@H](O)C6)c(OC)n5)c4Cl)cccc32)cc(OC)c1CNCCO [Example 125, cis-3-(((6-(2-chloro-3-(1-(4-(((2-hydroxyethyl)amino)methyl)-3,5-dimethoxyphenyl)-1H-indazol-4-yl)phenyl)-2-methoxypyridin-3-yl)methyl)amino)cyclobutanol] |
| < 0.2 | < 0.001 | COc1cc(-n2ncc3c(-c4cccc(-c5ccc(CN[C@H]6C[C@@H](O)C6)c(OC)n5)c4Cl)cccc32)cc(OC)c1CN[C@H](CO)C(=O)O [Example 126, (4-(4-(2-chloro-3-(5-(((cis-3-hydroxycyclobutyl)amino)methyl)-6-methoxypyridin-2-yl)phenyl)-1H-indazol-1-yl)-2,6-dimethoxybenzyl)-D-serine] |
| < 0.2 | < 0.001 | COc1cc(-n2ncc3c(-c4cccc(-c5ccc(CNC[C@@H](C)O)c(OC)n5)c4Cl)cccc32)cc(OC)c1CNC[C@@H](C)O [Example 127, (R)-1-(((6-(2-chloro-3-(1-(4-((((R)-2-hydroxypropyl)amino)methyl)-3,5-dimethoxyphenyl)-1H-indazol-4-yl)phenyl)-2-methoxypyridin-3-yl)methyl)amino)propan-2-ol] |
| < 0.2 | < 0.001 | COc1cc(-n2ncc3c(-c4cccc(-c5ccc(CN6CC7(CNC(=O)C7)C6)c(OC)n5)c4Cl)cccc32)cc(OC)c1CNCCO [Example 128, 2-((6-(2-chloro-3-(1-(4-(((2-hydroxyethyl)amino)methyl)-3,5-dimethoxyphenyl)-1H-indazol-4-yl)phenyl)-2-methoxypyridin-3-yl)methyl)-2,6-diazaspiro[3.4]octan-7-one] |
| < 0.2 | < 0.001 | COc1cc(-n2ncc3c(-c4cccc(-c5ccc(CNCCO)c(OC)n5)c4Cl)cccc32)cc(OC)c1CNCCO [Example 129, 2-(((6-(2-chloro-3-(1-(4-(((2-hydroxyethyl)amino)methyl)-3,5-dimethoxyphenyl)-1H-indazol-4-yl)phenyl)-2-methoxypyridin-3-yl)methyl)amino)ethanol] |
| < 0.2 | < 0.001 | COc1cc(-n2ncc3c(-c4cccc(-c5ccc(CN6CC[C@@H](C(=O)O)C6)c(OC)n5)c4Cl)cccc32)cc(OC)c1CN1CC2(CNC(=O)C2)C1 [Example 130, (R)-1-((6-(2-chloro-3-(1-(3,5-dimethoxy-4-((7-oxo-2,6-diazaspiro[3.4]octan-2-yl)methyl)phenyl)-1H-indazol-4-yl)phenyl)-2-methoxypyridin-3-yl)methyl)pyrrolidine-3-carboxylic acid] |
| 0.201 to 2 | 0.001 to 0.01 | COc1cc(-n2ncc3c(-c4cccc(-c5ccc(CN[C@H]6C[C@@H](O)C6)c(OC)n5)c4Cl)cccc32)cc(OC)c1CNCC1(C(N)=O)CC1 [Example 131, 1-(((4-(4-(2-chloro-3-(5-(((cis-3-hydroxycyclobutyl)amino)methyl)-6-methoxypyridin-2-yl)phenyl)-1H-indazol-1-yl)-2,6-dimethoxybenzyl)amino)methyl)cyclopropane-1-carboxamide] |
| < 0.2 | < 0.001 | COc1cc(-n2ncc3c(-c4cccc(-c5ccc(CN6CC7(CNC(=O)C7)C6)c(OC)n5)c4Cl)cccc32)ncc1CNCCO [Example 132, 2-((6-(2-chloro-3-(1-(5-(((2-hydroxyethyl)amino)methyl)-4-methoxypyridin-2-yl)-1H-indazol-4-yl)phenyl)-2-methoxypyridin-3-yl)methyl)-2,6-diazaspiro[3.4]octan-7-one] |
| < 0.2 | 0.001 to 0.01 | COc1cc(-n2ncc3c(-c4cccc(-c5ccc(CN6CC7(CNC(=O)C7)C6)c(OC)n5)c4Cl)cccc32)cc(OC)c1CN1CC[C@@H](O)C1 [Example 133, (R)-2-((6-(2-chloro-3-(1-(4-((3-hydroxypyrrolidin-1-yl)methyl)-3,5-dimethoxyphenyl)-1H-indazol-4-yl)phenyl)-2-methoxypyridin-3-yl)methyl)-2,6-diazaspiro[3.4]octan-7-one] |
| < 0.2 | < 0.001 | COC(=O)[C@@H](CO)NCc1c(OC)cc(-n2ncc3c(-c4cccc(-c5ccc(CNC[C@@H]6CCC(=O)N6)c(OC)n5)c4Cl)cccc32)cc1OC [Example 134, methyl (4-(4-(2-chloro-3-(6-methoxy-5-(((((S)-5-oxopyrrolidin-2-yl)methyl)amino)methyl)pyridin-2-yl)phenyl)-1H-indazol-1-yl)-2,6-dimethoxybenzyl)-D-serinate] |
| < 0.2 | < 0.001 | COc1cc(-n2ncc3c(-c4cccc(-c5ccc(CN6CC7(CNC(=O)C7)C6)c(OC)n5)c4F)cccc32)cc(OC)c1CNC[C@@H]1CCC(=O)N1 [Example 135, (S)-2-((6-(2-fluoro-3-(1-(3,5-dimethoxy-4-((((5-oxopyrrolidin-2-yl)methyl)amino)methyl)phenyl)-1H-indazol-4-yl)phenyl)-2-methoxypyridin-3-yl)methyl)-2,6-diazaspiro[3.4]octan-7-one] |
| 0.201 to 2 | < 0.001 | COc1cc(-n2ncc3c(-c4cccc(-c5ccc(CN6CC(C(C)(C)O)C6)c(OC)n5)c4C)cccc32)cc(OC)c1CN1CC(C(C)(C)O)C1 [Example 136, 2-(1-((6-(3-(1-(4-((3-(2-hydroxypropan-2-yl)azetidin-1-yl)methyl)-3,5-dimethoxyphenyl)-1H-indazol-4-yl)-2-methylphenyl)-2-methoxypyridin-3-yl)methyl)azetidin-3-yl)propan-2-ol] |
| 0.201 to 2 | < 0.001 | COc1cc(-n2ncc3c(-c4cccc(-c5ccc(CN6CC7(CNC(=O)C7)C6)c(OC)n5)c4Cl)cccc32)cc(OC)c1CN1CC(C(C)(C)O)C1 [Example 137, 2-((6-(2-chloro-3-(1-(4-((3-(2-hydroxypropan-2-yl)azetidin-1-yl)methyl)-3,5-dimethoxyphenyl)-1H-indazol-4-yl)phenyl)-2-methoxypyridin-3-yl)methyl)-2,6-diazaspiro[3.4]octan-7-one] |
| 0.201 to 2 | 0.001 to 0.01 | COc1cc(-n2ncc3c(-c4cccc(-c5ccc(CN6CC(C(C)(C)O)C6)c(OC)n5)c4Cl)cccc32)cc(OC)c1CN1CC2(CNC(=O)C2)C1 [Example 138, 2-(4-(4-(2-chloro-3-(5-((3-(2-hydroxypropan-2-yl)azetidin-1-yl)methyl)-6-methoxypyridin-2-yl)phenyl)-1H-indazol-1-yl)-2,6-dimethoxybenzyl)-2,6-diazaspiro[3.4]octan-7-one] |
| < 0.2 | < 0.001 | COc1cc(-n2ncc3c(-c4cccc(-c5ccc(CN6CC7(CNC(=O)C7)C6)c(OC)n5)c4Cl)cccc32)cc(OC)c1CN[C@@](C)(CO)C(=O)O [Example 139, (S)-2-((4-(4-(2-chloro-3-(6-methoxy-5-((7-oxo-2,6-diazaspiro[3.4]octan-2-yl)methyl)pyridin-2-yl)phenyl)-1H-indazol-1-yl)-2,6-dimethoxybenzyl)amino)-3-hydroxy-2-methylpropanoic acid] |
